Measured values taken from patent publication US11524969B2, “Pyrrolobenzodiazepines and conjugates thereof as antitumour agents” (MEDIMMUNE LIMITED, priority 2018, dated 2022).

Legend:
NCI-N87 = NCI-N87 assay, in vitro cytotoxicity of PBD payloads (MTS, 7 days); type: cell-based; conditions: Homo sapiens, NCI-N87, 168 h; 7 days incubation, mean of three independent replicates
Experimental: The potency of each of the PBD molecules were measured via in vitro cytotoxicity assays in the carcinoma cell line NCI-N87.
(§1) Solid PBD material was dissolved in DMSO to a 2 mM stock solution, from which eight serial dilutions were made at a 1:10 ratio in DMSO and stored at −20° C. until use.
Adherent NCI-N87 cells were washed with D-PBS and detached with Trypsin-EDTA, cell density and viability were then determined in duplicate by Trypan blue exclusion assay using an automated cell counter (LUNA-II™). Cell suspension was diluted to 1×10^5 cells/ml in growth media (RPMI 1640 with Glutamax+10% (v/v) HyClone™ Fetal Bovine Serum) and vortexed before dispensing 2 mL per well into sterile 3 mL polypropylene plates. Warhead dilutions were then dispensed into the appropriate wells at 10 μl/well and mixed by repeat pipetting. For control wells 10 μl of DMSO was dispensed onto 2 mL cell suspension, and thoroughly mixed. 100 μl of each sample was then aliquoted into 2 replicate wells of a sterile flat 96-well microplate and incubated in a 37° C. CO2-gassed (5%) incubator. At the end of the incubation period time (7 days), cell viability was measured by CellTiter 96® Aqueous One (MTS) assay, which was dispensed at 20 μl/well and incubated for 4 hours at 37° C., 5% CO2.
Plates were then read on an EnVision® Multi-label Plate Reader (Perkin Elmer) using absorbance at 490 nm.
(§2) Cell survival percentage was calculated from the mean absorbance of the 2 replicate wells for each sample, compared to the mean absorbance in the two control wells treated with DMSO only (100%). The IC50 was determined by fitting each data set to sigmoidal dose-response curves with a variable slope using the non-linear curve fit algorithm on the GraphPad Prism software (San Diego, Calif.).
All the experiments in this report were carried out and tested in three independent experiments. Data are reported as the mean of the three independent replicates.

K562 = K562 assay, in vitro cytotoxicity of PBD payloads (MTS, 4 days); type: cell-based; conditions: Homo sapiens, K562, 96 h; 4 days incubation, mean of three independent replicates
Experimental: The potency of each of the PBD molecules were measured via in vitro cytotox assays in the carcinoma cell line K562.
as §1
Adherent K562 cells were washed with D-PBS and detached with Trypsin-EDTA, cell density and viability were then determined in duplicate by Trypan blue exclusion assay using an automated cell counter (LUNA-II™). Cell suspension was diluted to 1×10^5 cells/ml in growth media (RPMI 1640 with Glutamax+10% (v/v) HyClone™ Fetal Bovine Serum) and vortexed before dispensing 2 mL per well into sterile 3 mL polypropylene plates. […] At the end of the incubation period time (4 days), cell viability was measured by CellTiter 96® Aqueous One (MTS) assay, which was dispensed at 20 μl/well and incubated for 4 hours at 37° C., 5% CO2. Plates were then read on an EnVision® Multi-label Plate Reader (Perkin Elmer) using absorbance at 490 nm.
as §2, with “Calif.). […]” for “Calif.).”

| SMILES | IC50 (NCI-N87) | IC50 (K562) |
| --- | --- | --- |
| C=C1C[C@H]2C=Nc3cc(OCc4cc(C(=O)OC)cc(COc5cc6c(cc5OC)C(=O)N5CC(=C)C[C@H]5C=N6)n4)c(OC)cc3C(=O)N2C1 [Compound 55, Methyl 2,6-bis((((S)-7-methoxy-2-methylene-5-oxo-2,3,5,11a-tetrahydro-1H-benzo[e]pyrrolo[1,2-a][1,4]diazepin-8-yl)oxy)methyl)isonicotinate] | 0.0168 nM |  |
| COc1cc2c(cc1OCc1cc(COc3cc4c(cc3OC)C(=O)N3C=C(C)C[C@H]3C=N4)cc(C(=O)O)c1)N=C[C@@H]1CC(C)=CN1C2=O [Compound 49, 3,5-bis((((S)-7-methoxy-2-methyl-5-oxo-5,11a-dihydro-1H-benzo[e]pyrrolo[1,2-a][1,4]diazepin-8-yl)oxy)methyl)benzoic acid] |  | 1.84 nM |
| C=C1C[C@H]2C=Nc3cc(OCc4cccc(COc5cc6c(cc5OC)C(=O)N5CC(=C)C[C@H]5C=N6)c4)c(OC)cc3C(=O)N2C1 [Compound 58, (11aS,11a′S)-8,8′-((1,3-phenylenebis(methylene))bis(oxy))bis(7-methoxy-2-methylene-1,2,3,11a-tetrahydro-5H-benzo[e]pyrrolo[1,2-a][1,4]diazepin-5-one), reference compound] | 0.0172 nM |  |
| C=C1C[C@H]2C=Nc3cc(OCc4cc(C(=O)O)cc(COc5cc6c(cc5OC)C(=O)N5CC(=C)C[C@H]5C=N6)n4)c(OC)cc3C(=O)N2C1 [Compound 56, 2,6-Bis((((S)-7-methoxy-2-methylene-5-oxo-2,3,5,11a-tetrahydro-1H-benzo[e]pyrrolo[1,2-a][1,4]diazepin-8-yl)oxy)methyl)isonicotinic acid] | 20.7 nM |  |
| C=C1C[C@H]2C=Nc3cc(OCc4cc(COc5cc6c(cc5OC)C(=O)N5CC(=C)C[C@H]5C=N6)cc(C(=O)OC)c4)c(OC)cc3C(=O)N2C1 [Compound 51, Methyl 3,5-bis((((S)-7-methoxy-2-methylene-5-oxo-2,3,5,11a-tetrahydro-1H-benzo[e]pyrrolo[1,2-a][1,4]diazepin-8-yl)oxy)methyl)benzoate] | 0.0685 nM |  |
| C=C1C[C@H]2C=Nc3cc(OCc4cc(COc5cc6c(cc5OC)C(=O)N5CC(=C)C[C@H]5C=N6)cc(C(=O)O)c4)c(OC)cc3C(=O)N2C1 [Compound 53, 3,5-bis((((S)-7-Methoxy-2-methylene-5-oxo-2,3,5,11a-tetrahydro-1H-benzo[e]pyrrolo[1,2-a][1,4]diazepin-8-yl)oxy)methyl)benzoic acid] | 4.31 nM |  |
| COC(=O)c1cc(COc2cc3c(cc2OC)C(=O)N2C=C(C)C[C@H]2C=N3)cc(COc2cc3c(cc2OC)C(=O)N2C=C(C)C[C@H]2C=N3)c1 [Compound 47, Methyl 3,5-bis((((S)-7-methoxy-2-methyl-5-oxo-5,11a-dihydro-1H-benzo[e]pyrrolo[1,2-a][1,4]diazepin-8-yl)oxy)methyl)benzoate] |  | 0.162 nM |
